According to ChEMBL document CHEMBL3885861, “Open TG-GATES”:

Species on record: Rattus norvegicus
Assay: Open TG-GATES - Regimen: Daily Repeat
Type: toxicity, organism-based, Sprague-Dawley
Set-up: regimen Daily Repeat, gender Male, age 6 weeks
Settings: in vivo, po, 0 mg/kg, route gavage, dose level Control; for APTT / Bas / Eos / Fbg / Hb / Ht / Lym / MCH / MCHC / MCV / Mono / Neu / PT / Plat / RBC / Ret / WBC: tissue Blood; for KIDNEY_L / KIDNEY_R / KIDNEY_TOTAL: tissue Kidney; for LIVER: tissue Liver; for A/G / ALP / ALT / AST / BUN / CRE / Ca / Cl / DBIL / GLC / IP / K / LDH / Na / PL / RALB / TBIL / TC / TG / TP / gamma-GTP: tissue Plasma

C[C@]12CCC(=O)C=C1CC[C@@H]1[C@@H]2CC[C@@]2(C)[C@H]1CC[C@]2(C)O [METHYLTESTOSTERONE]
TERMINAL_BW (72 h, time 3 day): 237.3 g
APTT (72 h, time 3 day): 16.2 s
Bas (72 h, time 3 day): 0%
Eos (72 h, time 3 day): 1.2%
Fbg (72 h, time 3 day): 280 mg/dL
Hb (72 h, time 3 day): 13.4 g/dL
Ht (72 h, time 3 day): 38.9%
Lym (72 h, time 3 day): 78.4%
MCH (72 h, time 3 day): 21.6 pg
MCHC (72 h, time 3 day): 34.4%
MCV (72 h, time 3 day): 62.7 fL
Mono (72 h, time 3 day): 2.4%
Neu (72 h, time 3 day): 17.4%
PT (72 h, time 3 day): 12.9 s
Plat (72 h, time 3 day): 119.6 x10_4/uL
RBC (72 h, time 3 day): 619.6 x10_4/ul
Ret (72 h, time 3 day): 6.7%
WBC (72 h, time 3 day): 73.9 x10_2/uL
KIDNEY_L (72 h, time 3 day): 1 g
KIDNEY_R (72 h, time 3 day): 1 g
KIDNEY_TOTAL (72 h, time 3 day): 2 g
LIVER (72 h, time 3 day): 10.9 g
A/G (72 h, time 3 day): 0.9
ALP (72 h, time 3 day): 1982.8 IU/L
ALT (72 h, time 3 day): 45.6 IU/L
AST (72 h, time 3 day): 73.2 IU/L
BUN (72 h, time 3 day): 15.2 mg/dL
CRE (72 h, time 3 day): 0.2 mg/dL
Ca (72 h, time 3 day): 10.9 mg/dL
Cl (72 h, time 3 day): 108.2 meq/L
DBIL (72 h, time 3 day): 0.014 mg/dL
GLC (72 h, time 3 day): 186.4 mg/dL
IP (72 h, time 3 day): 7.5 mg/dL
K (72 h, time 3 day): 4.2 meq/L
LDH (72 h, time 3 day): 54.4 IU/L
Na (72 h, time 3 day): 142.6 meq/L
PL (72 h, time 3 day): 142.8 mg/dL
RALB (72 h, time 3 day): 2.6 g/dL
TBIL (72 h, time 3 day): 0.028 mg/dL
TC (72 h, time 3 day): 77.8 mg/dL
TG (72 h, time 3 day): 87.2 mg/dL
TP (72 h, time 3 day): 5.6 g/dL
gamma-GTP (72 h, time 3 day): 1 IU/L
TERMINAL_BW ([…], time 7 day): 278.3 g
TERMINAL_BW ([…], time 14 day): 322 g
TERMINAL_BW ([…], time 28 day): 397.8 g
APTT ([…], time 7 day): 16.6 s
Bas ([…], time 7 day): 0%
Eos ([…], time 7 day): 0.8%
Fbg ([…], time 7 day): 272 mg/dL
Hb ([…], time 7 day): 13.4 g/dL
Ht ([…], time 7 day): 39%
Lym ([…], time 7 day): 81.8%
MCH ([…], time 7 day): 21.4 pg
MCHC ([…], time 7 day): 34.3%
MCV ([…], time 7 day): 62.6 fL
Mono ([…], time 7 day): 2.2%
Neu ([…], time 7 day): 15%
PT ([…], time 7 day): 13.1 s
Plat ([…], time 7 day): 136.7 x10_4/uL
RBC ([…], time 7 day): 623.8 x10_4/ul
Ret ([…], time 7 day): 5.6%
WBC ([…], time 7 day): 87.3 x10_2/uL
APTT ([…], time 14 day): 15.9 s
Bas ([…], time 14 day): 0.2%
Eos ([…], time 14 day): 1%
Fbg ([…], time 14 day): 288.4 mg/dL
Hb ([…], time 14 day): 14.7 g/dL
Ht ([…], time 14 day): 42.6%
Lym ([…], time 14 day): 80.6%
MCH ([…], time 14 day): 20.7 pg
MCHC ([…], time 14 day): 34.6%
MCV ([…], time 14 day): 59.8 fL
Mono ([…], time 14 day): 2.6%
Neu ([…], time 14 day): 15.4%
PT ([…], time 14 day): 12.8 s
Plat ([…], time 14 day): 112.1 x10_4/uL
RBC ([…], time 14 day): 713 x10_4/ul
Ret ([…], time 14 day): 3.6%
WBC ([…], time 14 day): 88 x10_2/uL
APTT ([…], time 28 day): 17.5 s
Bas ([…], time 28 day): 0%
Eos ([…], time 28 day): 1.2%
Fbg ([…], time 28 day): 269.8 mg/dL
Hb ([…], time 28 day): 15.7 g/dL
Ht ([…], time 28 day): 44.4%
Lym ([…], time 28 day): 78.2%
MCH ([…], time 28 day): 19.7 pg
MCHC ([…], time 28 day): 35.4%
MCV ([…], time 28 day): 55.9 fL
Mono ([…], time 28 day): 2%
Neu ([…], time 28 day): 17.6%
PT ([…], time 28 day): 13.5 s
Plat ([…], time 28 day): 106.1 x10_4/uL
RBC ([…], time 28 day): 794.6 x10_4/ul
Ret ([…], time 28 day): 2.1%
WBC ([…], time 28 day): 94.3 x10_2/uL
KIDNEY_L ([…], time 7 day): 1.2 g
KIDNEY_R ([…], time 7 day): 1.1 g
KIDNEY_TOTAL ([…], time 7 day): 2.3 g
KIDNEY_L ([…], time 14 day): 1.2 g
KIDNEY_R ([…], time 14 day): 1.2 g
KIDNEY_TOTAL ([…], time 14 day): 2.5 g
KIDNEY_L ([…], time 28 day): 1.4 g
KIDNEY_R ([…], time 28 day): 1.4 g
KIDNEY_TOTAL ([…], time 28 day): 2.8 g
LIVER ([…], time 7 day): 12.2 g
LIVER ([…], time 14 day): 13.6 g
LIVER ([…], time 28 day): 14.9 g
A/G ([…], time 7 day): 0.9
ALP ([…], time 7 day): 1755.8 IU/L
ALT ([…], time 7 day): 41.2 IU/L
AST ([…], time 7 day): 71.6 IU/L
BUN ([…], time 7 day): 16.4 mg/dL
CRE ([…], time 7 day): 0.2 mg/dL
Ca ([…], time 7 day): 11 mg/dL
Cl ([…], time 7 day): 104.8 meq/L
DBIL ([…], time 7 day): 0.018 mg/dL
GLC ([…], time 7 day): 192.4 mg/dL
IP ([…], time 7 day): 7.5 mg/dL
K ([…], time 7 day): 4 meq/L
LDH ([…], time 7 day): 68.4 IU/L
Na ([…], time 7 day): 142 meq/L
PL ([…], time 7 day): 136.4 mg/dL
RALB ([…], time 7 day): 2.7 g/dL
TBIL ([…], time 7 day): 0.028 mg/dL
TC ([…], time 7 day): 73 mg/dL
TG ([…], time 7 day): 100.6 mg/dL
TP ([…], time 7 day): 5.8 g/dL
gamma-GTP ([…], time 7 day): 1.2 IU/L
A/G ([…], time 14 day): 0.8
ALP ([…], time 14 day): 1238.8 IU/L
ALT ([…], time 14 day): 51.8 IU/L
AST ([…], time 14 day): 71.4 IU/L
BUN ([…], time 14 day): 16.4 mg/dL
CRE ([…], time 14 day): 0.2 mg/dL
Ca ([…], time 14 day): 10.6 mg/dL
Cl ([…], time 14 day): 105.8 meq/L
DBIL ([…], time 14 day): 0.018 mg/dL
GLC ([…], time 14 day): 187 mg/dL
IP ([…], time 14 day): 7 mg/dL
K ([…], time 14 day): 4.2 meq/L
LDH ([…], time 14 day): 96.2 IU/L
Na ([…], time 14 day): 141.6 meq/L
PL ([…], time 14 day): 144 mg/dL
RALB ([…], time 14 day): 2.7 g/dL
TBIL ([…], time 14 day): 0.032 mg/dL
TC ([…], time 14 day): 75.6 mg/dL
TG ([…], time 14 day): 127 mg/dL
TP ([…], time 14 day): 5.9 g/dL
gamma-GTP ([…], time 14 day): 1.2 IU/L
A/G ([…], time 28 day): 0.8
ALP ([…], time 28 day): 1136 IU/L
ALT ([…], time 28 day): 37.8 IU/L
AST ([…], time 28 day): 62.2 IU/L
BUN ([…], time 28 day): 16.4 mg/dL
CRE ([…], time 28 day): 0.2 mg/dL
Ca ([…], time 28 day): 11.3 mg/dL
Cl ([…], time 28 day): 105.4 meq/L
DBIL ([…], time 28 day): 0.016 mg/dL
GLC ([…], time 28 day): 182.6 mg/dL
IP ([…], time 28 day): 6.2 mg/dL
K ([…], time 28 day): 3.9 meq/L
LDH ([…], time 28 day): 59.8 IU/L
Na ([…], time 28 day): 143 meq/L
PL ([…], time 28 day): 127.8 mg/dL
RALB ([…], time 28 day): 2.8 g/dL
TBIL ([…], time 28 day): 0.03 mg/dL
TC ([…], time 28 day): 63.4 mg/dL
TG ([…], time 28 day): 120.6 mg/dL
TP ([…], time 28 day): 6.2 g/dL
gamma-GTP ([…], time 28 day): 0.8 IU/L
